Compound `*=NP(=NP(=NC(=*)Oc1ccc(C(=O)OC)cc1)(Oc1ccc(C(=O)OC)cc1)Oc1ccc(C(=O)OC)cc1)(Oc1ccc(C(=O)OC)cc1)Oc1ccc(C(=O)OC)cc1` (repeat unit) had a glass transition temperature of 52.00 °C.
On to `*=NP(=NP(=NC(=*)Oc1ccc(C(C)(C)C)cc1)(Oc1ccc(C(C)(C)C)cc1)Oc1ccc(C(C)(C)C)cc1)(Oc1ccc(C(C)(C)C)cc1)Oc1ccc(C(C)(C)C)cc1` (repeat unit), for which the glass transition temperature turned out to be 74.00 °C.
Regarding `*=NP(=NP(=NC(=*)Oc1ccc(C(C)(C)c2ccccc2)cc1)(Oc1ccc(C(C)(C)c2ccccc2)cc1)Oc1ccc(C(C)(C)c2ccccc2)cc1)(Oc1ccc(C(C)(C)c2ccccc2)cc1)Oc1ccc(C(C)(C)c2ccccc2)cc1` (repeat unit), the glass transition temperature is 55.00 °C.
The compound `*CC(*)(C#N)C(=O)OC(C)C` (repeat unit) registered a glass transition temperature of 66.00 °C.
For `*CC(*)(C#N)C(=O)OCC` (repeat unit) the value was 115.00 °C; for `*CC(*)(C#N)C(=O)OCC(C)C` (repeat unit), 51.00 °C; for `*CC(*)(C)C(=O)NC(=O)OC(C)COc1c(Br)cc(S(=O)(=O)c2cc(Br)c(OCC(C)O)c(Br)c2)cc1Br` (repeat unit), 45.00 °C.
`*CC(*)(C)C(=O)NC(=O)OCCOc1c(Br)cc(S(=O)(=O)c2cc(Br)c(OCCO)c(Br)c2)cc1Br` (repeat unit) returned a glass transition temperature of 110.00 °C.
`*CC(*)(C)C(=O)NC(=O)OCCOc1ccc(S(=O)(=O)c2ccc(OCCO)cc2)cc1` (repeat unit) came in with a glass transition temperature of 131.00 °C.
For `*CC(*)(C)C(=O)NC(=O)Oc1c(Br)cc(S(=O)(=O)c2cc(Br)c(O)c(Br)c2)cc1Br` (repeat unit) the value was 116.00 °C; for `*CC(*)(C)C(=O)Nc1ccc(C(=O)/C=C/c2ccc(OC)cc2)cc1` (repeat unit), 35.00 °C; for `*CC(*)(C)C(=O)OC(COc1cccc2ccccc12)COc1cccc2ccccc12` (repeat unit), 80.00 °C.
`*CC(*)(C)C(=O)OC(F)(F)C(F)(F)C(F)(F)C(F)(F)C(F)(F)C(F)(F)C(F)(F)C(F)(F)F` (repeat unit) showed a glass transition temperature of 49.00 °C.
`*CC(*)(C)C(=O)OC1(C)C2CC3CC(C2)CC1C3` (repeat unit) displayed a glass transition temperature of 165.00 °C.
To `*CC(*)(C)C(=O)OC1(C)CCOC(=O)C1` (repeat unit) belongs 110.00 °C.
To `*CC(*)(C)C(=O)OC1CC(C)CCC1C(C)C` (repeat unit) belongs 147.00 °C.
In turn, `*CC(*)(C)C(=O)OC1CC2CC1C1C3CCC(C3)C21` (repeat unit) displayed a glass transition temperature of 199.00 °C.
In turn, `*CC(*)(C)C(=O)OC1CCC(C)CC1` (repeat unit) returned a glass transition temperature of 109.00 °C.
Take `*CC(*)(C)C(=O)OC1CCC1` (repeat unit): the glass transition temperature turned out to be 119.00 °C.
`*CC(*)(C)C(=O)OC1CCCC1` (repeat unit) gave a glass transition temperature of 75.00 °C.
With `*CC(*)(C)C(=O)OC1CCCCC1C` (repeat unit), the glass transition temperature turned out to be 85.00 °C.
With `*CC(O)CN(C)S(=O)(=O)c1ccc(-c2ccc(S(=O)(=O)N(C)CC(O)COc3ccc(C(C)(C)c4ccc(O*)cc4)cc3)cc2)cc1` (repeat unit), the glass transition temperature is 101.00 °C.
`*CC(O)CN(C)S(=O)(=O)c1ccc(-c2ccc(S(=O)(=O)N(C)CC(O)COc3ccc(O*)cc3)cc2)cc1` (repeat unit) came in with a glass transition temperature of 84.00 °C.
In turn, `*CC(O)CN(C)S(=O)(=O)c1cccc(S(=O)(=O)N(C)CC(O)COc2ccc(O*)cc2)c1` (repeat unit) returned a glass transition temperature of 66.00 °C.
Regarding `*CC(O*)c1ccccc1` (repeat unit), the glass transition temperature was 34.00 °C.
The compound `*CC(OC)C(C)(C(=O)OC)C(*)(C)C(=O)OC` (repeat unit) returned a glass transition temperature of 134.00 °C.

(Values after the PolyMetriX glass transition set.)
